“And” between values parts separate entries of the source, which are not always exact repeats. Equal entries are not always repeated. Where two headings read alike, the source gives them in different places.
How the values were obtained:
[1] = biological target: T1, human serum albumin (HSA) (Homo sapiens, UniProt P02768); assay: UV-Vis spectroscopic studies: HSA-induced increase in the absorbance of Heme site ligands; assay type: binding; details: for Higher binding constant by Hyperquad evaluation of UV-Vis data: compared with quenching studies and Scatchard plot evaluation; for Kd at 5 μM: human, human serum albumin (HSA) solution in PBS
T1 construct: purchased Merck (Darmstadt, Germany) A1653
Procedure: UV-Vis spectra were recorded in PBS (pH 7.4) at 25 °C, employing a Jasco V730 UV-Vis spectrophotometer (Tokyo, Japan). Absorption spectra of Heme site ligands (5.0 μM each) have been recorded without and with increasing concentrations of HSA (0.0, 0.2, 0.5, 0.7, 1.0, 1.5, 2.0, 5.0, 10, and 15 μM). Binding constants (K) of ligand–albumin complexes were determined based on the HSA-induced increase in their absorbance (at 480 nm for BIL, at 390 nm for BVD, at 400 nm for HEM, and at 460 nm for MO). […] Binding constants (K; unit: L/mol) were calculated with linear and non-linear fitting, using the Scatchard equation [58] and the Hyperquad2006 software, respectively. The Scatchard equation for 1:1 binding model follows:(1) (A−A0)/[HSA]0=(Aligand−HSA−A0)×K−(A−A0)×K where A0 and A are the absorbance values of the ligand in the absence and presence of HSA, respectively; Aligand-HSA is the absorbance when each ligand molecule bound to HSA, and [HSA] is the concentration of albumin (unit: mol/L).
The following equations are implemented in the Hyperquad program code: (2) aLIGAND+bHSA ↔LIGANDaHSAb (3) βab=[LIGANDaHSAb]/[LIGAND]^a[HSA]^b where a and b indicate the stoichiometry associated with the equilibria in the solution. All equilibrium constants are defined as overall association constants (β):(4) LIGAND+HSA ↔LIGAND HSA; β1=[LIGAND HSA]/[LIGAND][HSA] (5) 2 LIGAND+HSA ↔LIGAND2 HSA; β2=[LIGAND2HSA]/[LIGAND]^2[HSA] (6) aLIGAND+HSA ↔LIGANDaHSA; βa=[LIGANDaHSA]/[LIGAND]^a[HSA]
The stepwise association constants (K) are defined by β:(7) β1=K1; β2=K1×K2; βa=K1×K2×…×Ka
During data evaluation the stoichiometry and association constants of the ligand binding process were calculated using the lowest standard deviation model.

[2] = biological target: T1, human serum albumin (HSA); assay: Fluorescence quenching of HSA by Heme site ligands; assay type: binding; details: HSA 2 μM; for Fluorescence Quenching Hyperquad logK / Kd: K unit L/mol; for Fluorescence Quenching Stern–Volmer Plot logKSV: KSV unit L/mol; for Kd: read-out: Fluorescence Quenching Hyperquad logK (converted)
Procedure: Fluorescence spectra were recorded in PBS (pH 7.4) at 25 °C, employing a Hitachi F-4500 fluorometer (Tokyo, Japan). Binding constants of BIL, BVD, HEM, and MO were also determined based on fluorescence quenching studies (λex = 295 nm). Emission spectra of HSA (2.0 μM) were recorded in the absence and presence of the increasing concentrations of Heme site ligands (0.0, 0.5, 1.0, 2.0, 3.0, 5.0, 7.0, 10, and 15 μM). Before the evaluation of emission intensity data at 340 nm, the inner-filter effect of ligand molecules was corrected using the following equation [60, 61]:(8) Icor=Iobs×e^(Aex+Aem)/2 where Icor and Iobs are the corrected and observed fluorescence emission intensities, respectively; Aex and Aem are the absorbance values of Heme site ligands at 295 and 340 nm, respectively.

WAR–HSA complex = biological target: T2, WAR–HSA complex (Homo sapiens, UniProt P02768); assay: Effects of ligands on the fluorescence emission signal of WAR–HSA complex; assay type: binding; details: WAR 1 μM, HSA 3.5 μM, PBS pH 7.4, λex 317 nm; for Effect on the fluorescence emission signal of WAR (WAR–HSA complex): ligand 0–10 μM, λem 379 nm
T2 construct: purchased Merck (Darmstadt, Germany) A1653

WAR–HSA interaction [3] = biological target: T3, WAR–HSA interaction (Homo sapiens, UniProt P02768); assay: Ultrafiltration: filtered fraction of WAR in the presence of HSA and ligands; assay type: binding; details: WAR 1.0 μM, HSA 5.0 μM
T3 construct: purchased Merck (Darmstadt, Germany) A1653
Procedure: Amicon Ultra-0.5 centrifugal filters (Merck, Darmstadt, Germany) with 30 kDa molecular weight cut-off (MWCO) value were applied. […] Before ultrafiltration, filter units were washed once with water (500 μL) then once with PBS (500 μL). […] A 500 μL aliquot of samples was transferred to the filter and centrifuged for 10 min at 7500 g and 25 °C (fixed angle rotor).
(§1) Chromatographic data were evaluated employing ChromNAV2 software (Jasco, Tokyo, Japan). […] Briefly, samples (20 μL) were driven through a guard column (SecurityGuard C18, 4.0 × 3.0 mm; Phenomenex, Torrance, CA, USA) linked to a Nova-Pak C18 analytical column (150 × 3.9 mm, 4 μm; Waters, Milford, MA, USA). The isocratic elution was performed at room temperature with 1.0 mL/min flow rate applying sodium phosphate buffer (20 mM, pH 7.0), methanol, and acetonitrile (70:25:5 v/v%) as the mobile phase.

HSA = details: cited from earlier work
[4] = cited from earlier work
WAR–HSA interaction [5] = biological target: T3, WAR–HSA interaction; assay: Ultracentrifugation: WAR in the supernatant in the presence of HSA and BIL or MO; assay type: binding; details: WAR 1.0 μM, HSA 3.0 μM, ligand 5 or 20 μM, PBS pH 7.4; 170,000× g, 16 h, 20 °C; HPLC-FLD
Procedure: With the optimal conditions of ultracentrifugation, we can sediment the albumin fraction of a solution without the disruption of ligand–HSA interactions. Consequently, the free fraction of a ligand can be quantified from the supernatant. […] In 11 × 34 mm PC tubes (Beckman Coulter, Brea, CA, USA), a 900 μL aliquot of samples was centrifuged for 16 h at 170,000× g and 20 °C applying a Beckman Coulter Optima MAX-XP tabletop ultracentrifuge (with MLA-130 fixed-angle rotor). Then a 200 μL volume of the supernatant was carefully removed and directly analyzed by HPLC-FLD (see in Section 3.6).
as §1, with “We applied an integrated HPLC system (Jasco, Tokyo, Japan) built up from an autosampler (AS-4050), a binary pump (PU-4180), and a fluorescence detector (FP-920). Chromatographic” for “Chromatographic”

[6] = evaluated in the 0.5–3 µM concentration range, PBS pH 7.4
[7] = evaluated in the 3–15 µM concentration range, PBS pH 7.4
[8] = linear fitting, whole ligand range 0–15 μM, PBS pH 7.4, λex 295 nm, λem 340 nm, mean ± SEM
[9] = non-linear fitting, whole ligand range 0–15 μM, PBS pH 7.4, mean ± SEM
[10] = ligand 0–20 μM, PBS pH 7.4, 30 kDa MWCO, HPLC-FLD
[11] = linear fitting, K unit L/mol, ligand 5 μM, HSA 0–15 μM, PBS pH 7.4, 25 °C, mean ± SEM, read-out: UV-Vis Spectroscopy Scatchard Plot logK (converted)
[12] = non-linear fitting, K unit L/mol, ligand 5 μM, HSA 0–15 μM, PBS pH 7.4, 25 °C, mean ± SEM, read-out: UV-Vis Spectroscopy Hyperquad logK (converted)

T1 sequence (P02768 25-609): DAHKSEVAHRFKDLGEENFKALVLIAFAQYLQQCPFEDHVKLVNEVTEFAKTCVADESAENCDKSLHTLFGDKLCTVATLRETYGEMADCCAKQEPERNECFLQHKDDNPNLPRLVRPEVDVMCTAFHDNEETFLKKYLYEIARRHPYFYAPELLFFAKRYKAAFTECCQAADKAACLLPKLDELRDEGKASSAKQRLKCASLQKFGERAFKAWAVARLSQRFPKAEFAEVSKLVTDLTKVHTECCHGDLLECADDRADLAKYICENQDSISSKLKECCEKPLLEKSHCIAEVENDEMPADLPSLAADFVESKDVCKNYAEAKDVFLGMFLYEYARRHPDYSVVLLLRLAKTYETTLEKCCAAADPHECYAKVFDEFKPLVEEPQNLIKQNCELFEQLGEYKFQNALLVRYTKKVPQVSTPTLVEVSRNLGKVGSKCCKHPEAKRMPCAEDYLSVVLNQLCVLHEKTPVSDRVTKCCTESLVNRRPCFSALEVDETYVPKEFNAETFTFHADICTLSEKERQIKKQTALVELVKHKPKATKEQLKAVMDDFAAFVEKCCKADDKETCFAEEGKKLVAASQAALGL
T2 sequence (P02768 25-609, one chain of several): as the sequence (P02768 25-609) above
T3 sequence (P02768 25-609): as above

Compound: hemin
- Higher binding constant by Hyperquad evaluation of UV-Vis data [1]: approximately 100 fold
- UV-Vis Spectroscopy Scatchard Plot logK ([1]; linear fitting, K unit L/mol, ligand 5 μM, HSA 0–15 μM, PBS pH 7.4, 25 °C, mean ± SEM): 5.74 ± 0.04
- UV-Vis Spectroscopy Hyperquad logK ([1]; non-linear fitting, K unit L/mol, ligand 5 μM, HSA 0–15 μM, PBS pH 7.4, 25 °C, mean ± SEM): 7.4 and 7.35 ± 0.03
- Fluorescence Quenching Hyperquad logK [2, 6]: 5.34 ± 0.01
- Fluorescence Quenching Stern–Volmer Plot logKSV [2, 6]: 5.23 ± 0.02
- Fluorescence Quenching Hyperquad logK [2, 7]: 5.53 ± 0.02
- Fluorescence Quenching Stern–Volmer Plot logKSV [2, 7]: 5.55 ± 0.03
- Fluorescence Quenching Stern–Volmer Plot logKSV [2, 8]: 5.54 ± 0.02
- Fluorescence Quenching Hyperquad logK [2, 9]: 5.49 ± 0.02
- Effect on the fluorescence emission signal of WAR (WAR–HSA complex) (WAR–HSA complex): strongly reduced
- Effect on the filtered fraction of WAR (ultrafiltration) (WAR–HSA interaction [3]; ligand 1–5 μM): decreased
- Effect on the filtered fraction of WAR (ultrafiltration) (WAR–HSA interaction [3]; ligand 10 and 20 μM): gradual elevation

Compound: CCCCCCCCCCCCCCCCCC(=O)O [stearic acid]
- Increase in the emission intensity at 379 nm (WAR–HSA complex) (WAR–HSA complex; fatty acid 0–10 μM): ~2.5 fold
- Effect on the filtered fraction of WAR (ultrafiltration) (WAR–HSA interaction [3]; [10]): decreased

Compound: CC(=O)CC(c1ccccc1)c1c(O)c2ccccc2oc1=O (stereo not drawn) [WAR, warfarin]
- binding constant (K) of WAR–HSA complex (HSA; spectroscopic, affinity chromatography and ultracentrifugation experiments): approximately 2 × 10^5 L/mol
- plasma protein binding [4]: ≈ 99%

Compound: C=CC1=C(C)/C(=C/c2[nH]c(Cc3[nH]c(/C=C4\NC(=O)C(C)=C4C=C)c(C)c3CCC(=O)O)c(CCC(=O)O)c2C)NC1=O [BIL, bilirubin]
- Higher binding constant by Hyperquad evaluation of UV-Vis data [1]: approximately 100 fold
- Kd [1, 11]: 1480 nM
- Kd [1, 12]: 29.5 nM
- Fluorescence Quenching Stern–Volmer Plot logKSV [2, 8]: 5.26 ± 0.01
- Kd [2, 9]: 4.47 µM
- Effect on the fluorescence emission signal of WAR (WAR–HSA complex) (WAR–HSA complex): strongly reduced
- Effect on the filtered fraction of WAR (ultrafiltration) (WAR–HSA interaction [3]; [10]): strongly increased
- Effect on albumin binding of WAR (ultrafiltration) (WAR–HSA interaction [3]; ligand 5 μM): disrupted
- Effect on albumin binding of WAR (ultrafiltration) (WAR–HSA interaction [3]; ligand 20 μM): almost completely abolished
- Effect on the unbound fraction of WAR in the supernatant (ultracentrifugation) (WAR–HSA interaction [5]): significantly increased

Compound: CN(C)c1ccc(/N=N/c2ccc(S(=O)(=O)O)cc2)cc1 [MO, methyl orange]
- Kd at 5 μM ([1]; pH 7.4, linear fitting, K unit L/mol, ligand 5 μM, HSA 0–15 μM, PBS pH 7.4, 25 °C, mean ± SEM, read-out: UV-Vis Spectroscopy Scatchard Plot logK (converted)): 64.6 µM
- Kd at 5 μM ([1]; pH 7.4, non-linear fitting, K unit L/mol, ligand 5 μM, HSA 0–15 μM, PBS pH 7.4, 25 °C, mean ± SEM, read-out: UV-Vis Spectroscopy Hyperquad logK (converted)): 18.2 µM
- Kd ([2]; human, human serum albumin (HSA) solution in PBS, non-linear fitting, whole ligand range 0–15 μM, PBS pH 7.4, mean ± SEM): 14.8 µM
- Fluorescence Quenching Stern–Volmer Plot logKSV [2, 8]: 4.76 ± 0.02
- Effect on the fluorescence emission signal of WAR (WAR–HSA complex) (WAR–HSA complex): strongly reduced
- Effect on the filtered fraction of WAR (ultrafiltration) (WAR–HSA interaction [3]; ligand 1 μM): significantly reduced
- Effect on the filtered fraction of WAR (ultrafiltration) (WAR–HSA interaction [3]; ligand 2–20 μM): further gradual decrease
- Effect on the unbound fraction of WAR in the supernatant (ultracentrifugation) (WAR–HSA interaction [5]): considerably decreased
- logK of the MO–HSA complex (HSA; K in L/mol): 5.4
- binding constant of the MO–HSA complex (HSA): 230000 L/mol

Compound: C=CC1=C(C)c2cc3[n-]c(cc4[n-]c(cc5nc(cc1n2)C(C)=C5C=C)c(C)c4CCC(=O)O)c(CCC(=O)O)c3C.[Fe+2] [heme]
- Effect on the binding affinity of certain Site I ligands toward HSA (HSA; Site I ligands: abacavir, efavirenz, zidovudine, furosemide, indomethacin, phenylbutazone): strongly decrease
- Effect on the binding constant of the WAR–HSA complex (HSA): only slightly reduced

Compound: C=CC1=C(C)/C(=C/C2=NC(=C\c3[nH]c(/C=C4\NC(=O)C(C)=C4C=C)c(C)c3CCC(=O)O)/C(CCC(=O)O)=C2C)NC1=O [BVD, biliverdin]
- Kd [1, 11]: 11000 nM
- Kd [1, 12]: 2820 nM
- Fluorescence Quenching Stern–Volmer Plot logKSV [2, 8]: 5.37 ± 0.03
- Kd [2, 9]: 3.55 µM
- Effect on the fluorescence emission signal of WAR (WAR–HSA complex) (WAR–HSA complex): strongly reduced
- logK of the BVD–HSA complex (HSA; K in L/mol): ≈ 6
- binding constant of the BVD–HSA complex (HSA): approximately 10^6 L/mol
